Experimental data reported in patent US20220117940A1, “COMPOSITION FOR INCREASING PREGNANCY RATE OF RUMINANTS AND PREPARATION METHOD AND APPLICATION THEREOF” (CHINA AGRICULTURAL UNIVERSITY, priority 2020, published 2022).
Marks after values point to notes of the source that are not given here.

Legend:
[1] = system: cows exposed to TAI or natural ovulation; assay: Pregnancy and calving rates of first insemination in cows (TAI or natural ovulation) with melatonin injection; assay type: in vivo, Holstein cows
Protocol: (§1) 50 to 60 days after the insemination, the pregnancy tests were performed on the Holstein cows by means of rectal examination. Alternatively, 32 days after the insemination, the pregnancy rates were calculated by means of B-scan ultrasonography and pregnancy detection kits.

mouse = settings: 5 mg/kg injected before the MT1 receptor peak; cited from earlier work
[2] = system: Holstein cows exposed to natural ovulation; assay: Pregnancy and calving rates of cows exposed to natural ovulation with melatonin injection; assay type: in vivo
Protocol: as §1

[3] = Serum MT concentration after melatonin injection in cows exposed to ovsynch TAI (liquid chromatography); settings: melatonin injected with last dose of GnRH, PG-PG-GnRH-PG-GnRH ovsynch TAI, mean ± standard error, P<0.05 vs no melatonin
[4] = system: Holstein cows exposed to TAI; assay: Pregnancy and calving rates of cows exposed to ovsynch TAI with melatonin injection; assay type: in vivo
Protocol: A melatonin injection of 2-3 mL was injected in combination with the injection of GnRH of ovsynch TAI in cows (as shown in FIG. 1), with B-scan pregnancy tests on Days 32-35, or pregnancy tests by recto-vaginal technique on Day 60. The pregnancy rates were calculated.
2 mL of the injection prepared in Example 1 was administrated together with the last injection of GnRH to multipara Holstein cows (1-3 pregnancies) exposed to postpartum ovsynch TAI. In this process, a randomized administration approach was used, for example administer to every other cow in which the first cow was administrated, the second was not administrated, the third was administrated, and so on.
as §1

Holstein cows = assay: Serum reproductive hormone levels after melatonin injection in cows exposed to ovsynch TAI; assay type: in vivo; settings: mean ± standard error; for P (progesterone) levels: pregnant cows, Day 30 of pregnancy; for P (progesterone) levels / E2 (estradiol) levels / LH levels: P<0.05; for E2 (estradiol) levels / LH levels / FSH levels: serum; for E2 (estradiol) levels / LH levels: 8 hours after injection of GnRH plus melatonin; for FSH levels: after melatonin with last dose of GnRH, no significant change (P>0.05)
Excerpt: The process is substantially same as that of Example 2, except that blood was collected at each stage from ovsynch TAI to pregnancy tests, in order to determine the changes in relevant reproductive hormones in ovulating cows.

[5] = first insemination, TAI plus natural ovulation, of 162

COc1ccc2[nH]cc(CCNC(C)=O)c2c1 [Melatonin, N-acetyl-5-methoxytryptamine]
Increase of pregnancy rate relative to control ([1]; TAI or natural ovulation, 11.85/26.42): more than 44.85%
Pregnancy rate of first insemination ([1]; TAI plus natural ovulation, P<0.05 vs control): 38.27%^a
Calving rate ([1]; first insemination, TAI plus natural ovulation, P<0.05 vs control): 27.16%^a
Number of calves [1, 5]: 44
Number of pregnant cows [1, 5]: 62
Expression of corpus luteum marker genes Akr1c18 and Cyp11a1 (mouse): upregulate
Level of progesterone in mouse serum (mouse): significantly increase
Increase of pregnancy rate relative to control ([2]; 14.60/26.25): more than 55.62%
Calving rate ([2]; P<0.05 vs control): 29.58%^A
Pregnancy rate ([2]; P<0.05 vs control): 40.85%^A
Number of calves ([2]; of 71 cows): 21
Number of pregnant cows ([2]; of 71 cows): 29
MT levels in blood (serum) [3]: 4.35±0.53
MT levels in blood (serum) ([3]; listed as MT): 4.3465±0.5286
Pregnancy rate ([4]; TAI, 2 mL of 15 mg/mL injection with last GnRH, P<0.05 vs control): 36.26%^a
Number of pregnant cows ([4]; TAI, 2 mL of 15 mg/mL injection with last GnRH, of 91 cows): 33
Calving rate ([4]; TAI, P<0.05 vs control): 25.27%^a
Number of calves ([4]; TAI, of 91 cows): 23
Increase of pregnancy rate relative to control ([4]; multipara cows, ovsynch TAI, 9.68/26.58): more than 36.42%
Increase of pregnancy rate ([4]; preparation comprising melatonin of 15 mg/mL, cows exposed to ovsynch TAI): 11%
P (progesterone) levels (Holstein cows): 0.18±0.02
P (progesterone) levels (Holstein cows; listed as MT): 0.1825±0.0235
E2 (estradiol) levels (Holstein cows): 11.68±0.88
LH levels (Holstein cows): 5.02±0.23
E2 (estradiol) levels (Holstein cows; listed as MT): 11.678±0.8834
LH levels (Holstein cows; listed as MT): 5.022±0.2324
FSH levels (Holstein cows): 2.48±0.25
FSH levels (Holstein cows; listed as MT): 2.482±0.2463
